The source made the active and inactive calls.
Key:
[1] = molecular target: T1, High affinity choline transporter 1 (Homo sapiens, UniProt Q9GZV3); assay: CHT inhibitors, dose response, cell-based, 5-point CRC, membrane potential dye (AID 504840); type: functional
T1 sequence (Q9GZV3 whole entry): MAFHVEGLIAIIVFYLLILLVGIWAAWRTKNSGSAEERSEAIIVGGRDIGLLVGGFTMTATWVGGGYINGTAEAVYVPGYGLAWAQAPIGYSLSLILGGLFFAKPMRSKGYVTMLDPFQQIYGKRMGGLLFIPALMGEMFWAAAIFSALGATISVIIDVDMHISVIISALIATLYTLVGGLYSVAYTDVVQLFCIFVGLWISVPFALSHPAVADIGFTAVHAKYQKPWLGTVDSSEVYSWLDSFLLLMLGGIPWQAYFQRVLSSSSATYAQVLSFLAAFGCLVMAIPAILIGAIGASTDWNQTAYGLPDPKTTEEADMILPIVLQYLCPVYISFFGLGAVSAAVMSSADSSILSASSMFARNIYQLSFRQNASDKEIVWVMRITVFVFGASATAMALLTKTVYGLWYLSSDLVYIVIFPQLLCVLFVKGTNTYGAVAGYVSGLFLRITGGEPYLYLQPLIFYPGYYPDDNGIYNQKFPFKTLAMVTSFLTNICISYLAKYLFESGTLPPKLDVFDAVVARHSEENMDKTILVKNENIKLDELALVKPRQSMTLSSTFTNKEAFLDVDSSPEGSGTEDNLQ

[2] = molecular target: T2, Heat shock factor protein 1 (Mus musculus, UniProt P38532); assay: inhibition of MG132-induced HSE-luciferase signal, confirmation, cell-based, NIH3T3, luminescence, dose retest (AID 2382); type: functional;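 note: NIH3T3 fibroblasts with HSF1-driven luciferase reporter stressed by proteasome inhibitor MG132; luminescence from HSF1-driven luciferase expression after 8 hours of MG132 stress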
T2 sequence (P38532 whole entry): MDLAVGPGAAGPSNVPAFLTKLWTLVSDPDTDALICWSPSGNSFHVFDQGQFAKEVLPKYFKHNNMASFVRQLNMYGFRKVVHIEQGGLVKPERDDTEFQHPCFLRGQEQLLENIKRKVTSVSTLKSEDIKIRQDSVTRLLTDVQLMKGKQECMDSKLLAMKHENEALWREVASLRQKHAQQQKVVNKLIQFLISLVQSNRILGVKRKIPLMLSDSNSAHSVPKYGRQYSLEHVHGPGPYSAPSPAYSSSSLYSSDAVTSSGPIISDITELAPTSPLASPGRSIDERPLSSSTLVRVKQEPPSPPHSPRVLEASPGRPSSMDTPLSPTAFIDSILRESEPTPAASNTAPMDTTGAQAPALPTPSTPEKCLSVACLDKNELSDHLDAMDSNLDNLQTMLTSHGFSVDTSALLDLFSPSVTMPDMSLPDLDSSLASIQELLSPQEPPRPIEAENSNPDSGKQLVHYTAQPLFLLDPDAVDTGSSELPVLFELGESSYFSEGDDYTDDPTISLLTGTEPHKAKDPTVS

[3] = molecular target: FAD-linked sulfhydryl oxidase ALR (Homo sapiens, UniProt P55789); assay: inhibitors of human ALR sulfhydryl oxidase, dose response, biochemical, H2O2 detection, luminescence, cherry-pick (AID 493248)
FAD-linked sulfhydryl oxidase ALR, sequence (P55789 whole entry): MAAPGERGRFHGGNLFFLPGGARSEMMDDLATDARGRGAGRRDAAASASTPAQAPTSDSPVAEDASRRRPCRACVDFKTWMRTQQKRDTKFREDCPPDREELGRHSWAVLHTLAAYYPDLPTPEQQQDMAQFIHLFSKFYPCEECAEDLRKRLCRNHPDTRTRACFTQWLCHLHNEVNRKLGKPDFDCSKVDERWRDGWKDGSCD

[4] = molecular target: T3, Rac GTPase-activating protein 1 (Homo sapiens, UniProt Q9H0H5); assay: MgcRacGAP GTPase-activating activity inhibitors, confirmation, biochemical, ADP Hunter fluorescence, primary and confirmatory (AID 624330); type: functional
T3 sequence (Q9H0H5 whole entry): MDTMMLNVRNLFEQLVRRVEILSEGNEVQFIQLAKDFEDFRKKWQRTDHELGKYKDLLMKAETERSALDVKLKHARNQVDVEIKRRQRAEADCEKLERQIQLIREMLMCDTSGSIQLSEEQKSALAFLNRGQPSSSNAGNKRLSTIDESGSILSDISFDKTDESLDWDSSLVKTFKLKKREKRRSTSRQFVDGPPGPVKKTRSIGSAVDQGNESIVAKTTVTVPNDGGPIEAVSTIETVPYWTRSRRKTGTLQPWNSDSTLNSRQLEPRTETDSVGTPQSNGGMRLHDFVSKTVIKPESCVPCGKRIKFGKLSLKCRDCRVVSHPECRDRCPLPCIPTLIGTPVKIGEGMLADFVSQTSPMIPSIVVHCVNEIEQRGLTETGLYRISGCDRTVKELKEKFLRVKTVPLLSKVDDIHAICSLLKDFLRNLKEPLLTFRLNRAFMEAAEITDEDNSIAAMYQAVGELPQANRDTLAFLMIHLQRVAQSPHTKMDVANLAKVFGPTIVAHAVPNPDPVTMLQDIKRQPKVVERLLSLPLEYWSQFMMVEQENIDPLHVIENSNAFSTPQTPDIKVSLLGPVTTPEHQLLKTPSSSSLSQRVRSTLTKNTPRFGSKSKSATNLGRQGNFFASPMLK

[5] = ZM109 Env clade C HIV-1 fusion inhibitors, dose response, HeLa effector, CEM target cells, luciferase, cherry-pick (AID 652058); type: functional, cell-based
[6] = off-target signal loss in HeLa-CEM21 co-culture – HeLa F-luc CTL cells, cherry-picked, counter-screen for HIV-1 Env fusion inhibitor project, dose response (AID 652040); type: functional, cell-based;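 note: potency for signal decrease marking cytotoxic or nonspecific inhibition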
[7] = inhibitors of clade B AD8 Env fusion, dose response, cell-based, cherry-pick (AID 652062); type: functional;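 note: luciferase signal from cell-cell fusion driven by HIV-1 clade B AD8 Env; potency is for inhibitors of fusion seen as a drop in luminescence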
[8] = molecular target: T4, Protein skinhead-1 (Caenorhabditis elegans, UniProt P34707); type: functional
T4 sequence (P34707 whole entry): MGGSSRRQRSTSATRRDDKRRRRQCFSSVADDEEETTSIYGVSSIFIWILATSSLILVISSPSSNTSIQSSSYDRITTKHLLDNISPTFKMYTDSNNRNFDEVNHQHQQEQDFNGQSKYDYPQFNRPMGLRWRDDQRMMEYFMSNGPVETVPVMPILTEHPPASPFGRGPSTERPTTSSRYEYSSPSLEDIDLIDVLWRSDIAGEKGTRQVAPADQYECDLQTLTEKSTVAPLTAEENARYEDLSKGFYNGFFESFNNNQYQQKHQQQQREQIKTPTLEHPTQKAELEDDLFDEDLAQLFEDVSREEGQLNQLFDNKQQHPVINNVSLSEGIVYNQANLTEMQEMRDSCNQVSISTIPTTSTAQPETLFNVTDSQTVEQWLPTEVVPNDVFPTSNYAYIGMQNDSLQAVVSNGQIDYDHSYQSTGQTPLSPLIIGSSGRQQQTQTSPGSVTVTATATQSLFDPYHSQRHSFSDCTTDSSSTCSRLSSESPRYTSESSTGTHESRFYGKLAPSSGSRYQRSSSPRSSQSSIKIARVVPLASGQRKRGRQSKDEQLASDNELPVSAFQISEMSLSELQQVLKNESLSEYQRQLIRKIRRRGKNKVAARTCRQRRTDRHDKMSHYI

[9] = inhibitors of HIV Env-driven cell fusion, dose response, cherry-pick (AID 652057); type: functional, cell-based
[10] = molecular target: Large T antigen (Simian virus 40, UniProt P03070); type: functional, Betapolyomavirus macacae;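 note: Confirmatory-stage PubChem screen for compounds that inhibit SV40 T antigen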
Large T antigen, sequence (P03070 whole entry): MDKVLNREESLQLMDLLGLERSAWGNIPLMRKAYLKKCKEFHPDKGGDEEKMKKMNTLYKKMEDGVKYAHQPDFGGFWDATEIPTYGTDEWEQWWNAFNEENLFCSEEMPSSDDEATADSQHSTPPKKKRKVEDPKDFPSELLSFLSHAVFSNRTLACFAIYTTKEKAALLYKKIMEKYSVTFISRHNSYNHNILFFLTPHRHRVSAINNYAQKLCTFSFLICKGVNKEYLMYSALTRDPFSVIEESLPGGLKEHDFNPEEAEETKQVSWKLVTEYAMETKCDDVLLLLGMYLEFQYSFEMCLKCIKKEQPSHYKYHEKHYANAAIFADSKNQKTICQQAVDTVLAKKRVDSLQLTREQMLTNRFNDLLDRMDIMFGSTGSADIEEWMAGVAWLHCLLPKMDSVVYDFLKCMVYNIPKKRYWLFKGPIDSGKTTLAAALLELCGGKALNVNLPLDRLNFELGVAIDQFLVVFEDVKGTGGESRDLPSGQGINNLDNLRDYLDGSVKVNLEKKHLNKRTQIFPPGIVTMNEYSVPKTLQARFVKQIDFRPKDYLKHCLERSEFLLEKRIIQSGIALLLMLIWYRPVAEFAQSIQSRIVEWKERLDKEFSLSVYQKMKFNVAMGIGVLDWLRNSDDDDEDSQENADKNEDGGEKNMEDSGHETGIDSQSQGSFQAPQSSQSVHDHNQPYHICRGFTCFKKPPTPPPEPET

[11] = system: SN12K1; assay: cells; type: functional; conditions: Homo sapiens
[12] = system: P388; assay: cells; type: functional; conditions: Mus musculus
[13] = system: P388/ADR; assay: cells; type: functional; conditions: Mus musculus
[14] = intracellular Trypanosoma cruzi inhibitors in host cells – cell-based, plate reader, cherry-pick samples, set 3, dose response (AID 651818); type: functional;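 note: compounds incubated with infected cells for about four days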

With `COc1ccc(C(=O)N(C)Cc2ccc(C)o2)cc1OC1CCN(C(C)C)CC1` the IC50 [1] was 12.6 µM (active).

In the case of `O=C(Nc1ccc(F)c(Cl)c1)C1CCN(S(=O)(=O)c2cccnc2)CC1`, the IC50 [1] is reported as 13.2 µM (active) and the EC50 [2] is reported as > 195 µM (not active).

In the case of `CCN(CC)c1ccc(NC(=O)CNCc2ccccc2Cl)c(C)c1`, the AC50 [3] is reported as 1.61 µM (active), the IC50 [1] is reported as 20.9 µM (active) and the IC50 [4] is reported as 31 µM (active).

With `Cc1cc(C)c2nc(C(F)(F)F)nc(N3CCN(C(=O)c4ccco4)CC3)c2c1` the AC50 [5] was 1.22 µM (active), the AC50 [6] was 21.9 µM (active) and the AC50 [7] was 25.7 µM (active). For the same compound, the IC50 [8] was > 100 µM (inactive) and the AC50 [9] was 31.2 µM (active).

With `CN(C)c1ccc(C(=O)c2ccc(O)cc2O)cc1` the IC50 [1] was 11 µM (active).

With `O=C1NC(=O)N(c2ccc(Cl)cc2)C(=O)/C1=C/c1coc2ccc(O)cc2c1=O` the IC50 [10] was > 100 µM (active) and the IC50 [1] was 12.7 µM (active).

With `CCC1(C)Cc2c(sc3nnn(CC(=O)Nc4ccccc4)c(=O)c23)CO1` (stereo not drawn) the IC50 [1] was 11.5 µM (active).

In the case of `COc1cccc2c1C(=O)c1c(O)c3c(c(O)c1C2=O)C[C@@](O)(C(C)=O)C[C@@H]3OC1CC(N)C(O)C(C)O1` (stereo partly drawn), the GI50 [11] is reported as 0.069 µM (active), the GI50 [12] is reported as 0.076 µM (active) and the GI50 [13] is reported as 1.23 µM (inactive).

With `CCCn1c2ccccc2c2cnn(CC(=O)NCCN(C)C)c(=O)c21` the IC50 [1] was 11.5 µM (active).

For `Cc1ccc(N(O)C(C)(C)C)cc1`, the GI50 [11] was > 100 µM (inactive), the GI50 [12] was > 52.1 µM (inactive) and the GI50 [13] was 24.8 µM (inactive).

In the case of `C/C(=N\NC(=S)N1CCN(c2ccccn2)CC1)c1ncccn1`, the GI50 [11] is reported as 0.007 µM (active), the GI50 [12] is reported as 0.00326 µM (active) and the GI50 [13] is reported as 0.00356 µM (active).

In the case of `O=C1N[C@@H]([C@H]2CC[C@H](Cl)CN2)C(=O)N[C@H]1[C@H]1CC[C@H](Cl)CN1`, the GI50 [11] is reported as 1.02 µM (active), the GI50 [12] is reported as 0.327 µM (active) and the GI50 [13] is reported as 0.318 µM (active).

For `O=[N+]([O-])c1cc2ncc(-c3ccccc3)c(O)c2cc1/C(Cl)=C/c1ccccc1`, the GI50 [11] was 9.08 µM (inactive), the GI50 [12] was 7.35 µM (inactive) and the GI50 [13] was 4.53 µM (inactive).

In the case of `CC(=O)/C=C/c1c[nH]c(=O)[nH]c1=O`, the GI50 [11] is reported as 121 µM (inactive), the GI50 [12] is reported as 164 µM (inactive) and the GI50 [13] is reported as 148 µM (inactive).

For `NC(=O)NN=C(CS)CS`, the GI50 [11] was 18.7 µM (inactive), the GI50 [12] was 19.1 µM (inactive) and the GI50 [13] was 29.2 µM (inactive).

For `O=C(NCCCCCCNC(=O)n1cc(F)c(=O)[nH]c1=O)NCCCOCCOCCCNC(=O)C(O)C(O)C(O)C(O)CO` (stereo not drawn), the GI50 [11] was > 1.91 µM (inactive), the GI50 [12] was 0.107 µM (active) and the GI50 [13] was 0.0822 µM (active).

For `CC(=O)NC(Cc1ccsc1)C(=O)O` (stereo not drawn), the GI50 [11] was > 100 µM (inactive), the GI50 [12] was > 100 µM (inactive) and the GI50 [13] was > 100 µM (inactive).

For `COc1cc(/N=N\c2cccc(S(=O)(=O)O)c2)c(C)cc1/N=N\c1ccc(/C=C/c2ccc(/N=[N+](/[O-])c3ccc(/C=C/c4ccc(/N=N\c5cc(C)c(/N=N/c6cccc(S(=O)(=O)O)c6)cc5OC)cc4)c(S(=O)(=O)O)c3)cc2S(=O)(=O)O)cc1`, the GI50 [11] was > 100 µM (inactive) and the GI50 [12] was > 100 µM (inactive).

For `C[C@H](CO)N1C[C@H](C)[C@H](CN(C)Cc2ccc(Cl)c(Cl)c2)Oc2c(NS(C)(=O)=O)cccc2C1=O`, the AC50 [14] was 17.3 µM (active).

In the case of `C[C@@H]1CN([C@H](C)CO)C(=O)Cc2cc(NC(=O)Nc3ccc(C(F)(F)F)cc3)ccc2O[C@@H]1CN(C)Cc1ccc(Oc2ccccc2)cc1`, the AC50 [14] is reported as 3.3 µM (active).

For `C[C@@H]1CN([C@@H](C)CO)C(=O)Cc2cc(NC(=O)Nc3ccc(C(F)(F)F)cc3)ccc2O[C@@H]1CN(C)C(=O)Nc1ccc(C(F)(F)F)cc1`, the AC50 [14] was 3.66 µM (active).

With `C[C@@H]1CN([C@H](C)CO)C(=O)Cc2cc(NS(=O)(=O)c3ccc(F)cc3)ccc2O[C@@H]1CN(C)S(=O)(=O)c1ccccc1` the AC50 [14] was 5.74 µM (active).

In the case of `C[C@@H]1CN([C@H](C)CO)C(=O)c2cc(NS(=O)(=O)c3ccc(F)cc3)ccc2O[C@H]1CN(C)Cc1ccc(-c2ccccc2)cc1`, the AC50 [14] is reported as 5.77 µM (active).

For `C[C@H](CO)N1C[C@H](C)[C@H](CN(C)Cc2ccc(C(F)(F)F)cc2)Oc2ccc(NC(=O)Cc3cn(C)c4ccccc34)cc2C1=O`, the AC50 [14] was 4.35 µM (active).

In the case of `C[C@@H]1CN([C@H](C)CO)C(=O)Cc2cc(NC(=O)Nc3ccc4c(c3)OCO4)ccc2O[C@H]1CN(C)Cc1ccc(Oc2ccccc2)cc1`, the AC50 [14] is reported as 3.08 µM (active).

With `C[C@H]1CN([C@@H](C)CO)C(=O)c2cccc(N(C)C)c2O[C@H]1CN(C)Cc1ccc(C(=O)Nc2ccccc2N)cc1` the AC50 [14] was 4.84 µM (active).

With `C[C@H](CO)N1C[C@H](C)[C@H](CN(C)S(=O)(=O)c2ccc(Cl)cc2)Oc2c(NC(=O)Nc3ccc(C(F)(F)F)cc3)cccc2C1=O` the AC50 [14] was 4.44 µM (active).

In the case of `CCN(CC)c1ccc2cc(C(=O)Nc3ccc4[nH]c(C(=O)N5C[C@@H](CCl)c6c5cc(OC(=O)Nc5ccccc5)c5[nH]cc(C)c65)cc4c3)oc2c1` [CARZELESIN], the GI50 [11] is reported as 0.00016 µM (active), the GI50 [12] is reported as 8.38e-05 µM (active) and the GI50 [13] is reported as 259 µM (inactive).

With `CC1=C2C(=CO[C@H](C)[C@H]2C)C(O)=C(C(=O)O)C1=O` [CITRININ] the GI50 [11] was 15.3 µM (inactive), the GI50 [12] was 17 µM (inactive) and the GI50 [13] was 11.5 µM (inactive).

For `C[C@]12C=CC(=O)C=C1CC[C@@H]1[C@@H]2CC[C@]2(C)OC(=O)CC[C@@H]12` [TESTOLACTONE], the GI50 [11] was 458 µM (inactive), the GI50 [12] was 162 µM (inactive) and the GI50 [13] was 161 µM (inactive).

— ChEMBL document CHEMBL1201862, “PubChem BioAssay data set” (2004)
